Active and inactive are the calls of the source. The rule behind the calls is not given here.
Columns and labels:
Mus musculus [1] = assay: Acute toxicity in Swiss albino mouse assessed as serum cholesterol level at 50 mg/kg, po qd administered as single dose for 7 days (reference value: 68.37 +/- 4.42 mg/dl); format: organism-based; details: in vivo, 168 h
Mus musculus [2] = assay: Acute toxicity in Swiss albino mouse assessed as changes in absolute weight of heart up to 1000 mg/kg, po qd administered as single dose for 7 days; format: organism-based; details: in vivo, 168 h
Mus musculus [3] = assay: Acute toxicity in Swiss albino mouse assessed as serum SGOT level at 300 mg/kg, po qd administered as single dose for 7 days (reference value: 34.32 +/- 3.78 U/L); format: organism-based; details: in vivo, 168 h
Mus musculus [4] = assay: Acute toxicity in Swiss albino mouse assessed as serum creatinine level at 50 mg/kg, po qd administered as single dose for 7 days (reference value: 0.09 +/- 0.01 mg/dl); format: organism-based; details: in vivo, 168 h
Mus musculus [5] = assay: Acute toxicity in Swiss albino mouse assessed as changes in absolute weight of spleen up to 1000 mg/kg, po qd administered as single dose for 7 days; format: organism-based; details: in vivo, 168 h
Mus musculus [6] = assay: Acute toxicity in Swiss albino mouse assessed as serum RBC level at 300 mg/kg, po qd administered as single dose for 7 days (reference value: 9.07 +/- 1.13 million/mm3); format: organism-based; details: in vivo, 168 h
Mus musculus [7] = assay: Acute toxicity in Swiss albino mouse assessed as serum WBC level at 1000 mg/kg, po qd administered as single dose for 7 days (reference value: 8.64 +/- 0.42 10^3/mm3); format: organism-based; details: in vivo, 168 h
Mus musculus [8] = assay: Acute toxicity in Swiss albino mouse assessed as changes in absolute weight of brain up to 1000 mg/kg, po qd administered as single dose for 7 days; format: organism-based; details: in vivo, 168 h
Mus musculus [9] = assay: Acute toxicity in Swiss albino mouse assessed as changes in gait up to 1000 mg/kg, po qd administered as single dose for 7 days; format: organism-based; details: in vivo, 168 h
Mus musculus [10] = assay: Acute toxicity in Swiss albino mouse assessed as serum RBC level at 5 mg/kg, po qd administered as single dose for 7 days (reference value: 9.07 +/- 1.13 million/mm3); format: organism-based; details: in vivo, 168 h
Mus musculus [11] = assay: Acute toxicity in Swiss albino mouse assessed as serum triglycerides level at 1000 mg/kg, po qd administered as single dose for 7 days (reference value: 107.9 +/- 10.7 mg/dl); format: organism-based; details: in vivo, 168 h
Mus musculus [12] = assay: Acute toxicity in Swiss albino mouse assessed as serum SGPT level at 5 mg/kg, po qd administered as single dose for 7 days (reference value: 23.06 +/- 1.92 U/L); format: organism-based; details: in vivo, 168 h
Mus musculus [13] = assay: Acute toxicity in Swiss albino mouse assessed as serum WBC level at 50 mg/kg, po qd administered as single dose for 7 days (reference value: 8.64 +/- 0.42 10^3/mm3); format: organism-based; details: in vivo, 168 h
Mus musculus [14] = assay: Acute toxicity in Swiss albino mouse assessed as serum triglycerides level at 300 mg/kg, po qd administered as single dose for 7 days (reference value: 107.9 +/- 10.7 mg/dl); format: organism-based; details: in vivo, 168 h
Mus musculus [15] = assay: Acute toxicity in Swiss albino mouse assessed as body weight at 50 mg/kg, po qd administered as single dose for 7 days (reference value: 27.73 +/- 0.94 g); format: organism-based; details: in vivo, 168 h
Mus musculus [16] = assay: Acute toxicity in Swiss albino mouse assessed as serum albumin level at 300 mg/kg, po qd administered as single dose for 7 days (reference value: 2.49 +/- 0.17 g/dl); format: organism-based; details: in vivo, 168 h
Mus musculus [17] = assay: Acute toxicity in Swiss albino mouse assessed as serum creatinine level at 300 mg/kg, po qd administered as single dose for 7 days (reference value: 0.09 +/- 0.01 mg/dl); format: organism-based; details: in vivo, 168 h
Mus musculus [18] = assay: Acute toxicity in Swiss albino mouse assessed as changes in relative weight of kidney up to 1000 mg/kg, po qd administered as single dose for 7 days; format: organism-based; details: in vivo, 168 h
Mus musculus [19] = assay: Acute toxicity in Swiss albino mouse assessed as serum SGPT level at 300 mg/kg, po qd administered as single dose for 7 days (reference value: 23.06 +/- 1.92 U/L); format: organism-based; details: in vivo, 168 h
Mus musculus [20] = assay: Acute toxicity in Swiss albino mouse assessed as changes in relative weight of liver up to 1000 mg/kg, po qd administered as single dose for 7 days; format: organism-based; details: in vivo, 168 h
FaDu [21] = assay: Inhibition of topoisomerase-2 in human FADU cells at 2 times antiproliferative IC50 after 24 hrs by ELISA relative to control; format: cell-based
Mus musculus [22] = assay: Acute toxicity in Swiss albino mouse assessed as serum cholesterol level at 300 mg/kg, po qd administered as single dose for 7 days (reference value: 68.37 +/- 4.42 mg/dl); format: organism-based; details: in vivo, 168 h
Mus musculus [23] = assay: Acute toxicity in Swiss albino mouse assessed as serum cholesterol level at 1000 mg/kg, po qd administered as single dose for 7 days (reference value: 68.37 +/- 4.42 mg/dl); format: organism-based; details: in vivo, 168 h
[24] = Antiproliferative activity against human DLD1 cells after 48 hrs by SRB assay; format: functional, cell-based; details: DLD-1, 48 h
[25] = Antiproliferative activity against human A549 cells after 48 hrs by SRB assay; format: functional, cell-based; details: A549, 48 h
[26] = Antiproliferative activity against human MCF7 cells after 48 hrs by SRB assay; format: functional, cell-based; details: MCF7, 48 h
Mus musculus [27] = assay: Acute toxicity in Swiss albino mouse assessed as serum haemoglobin level at 300 mg/kg, po qd administered as single dose for 7 days (reference value: 13.29 +/- 0.46 g/dl); format: organism-based; details: in vivo, 168 h
Mus musculus [28] = assay: Acute toxicity in Swiss albino mouse assessed as effect on monocyte count up to 1000 mg/kg, po qd administered as single dose for 7 days; format: organism-based; details: in vivo, 168 h
Mus musculus [29] = assay: Acute toxicity in Swiss albino mouse assessed as serum protein level at 1000 mg/kg, po qd administered as single dose for 7 days (reference value: 2.91 +/- 0.31 mg/ml); format: organism-based; details: in vivo, 168 h
Mus musculus [30] = assay: Acute toxicity in Swiss albino mouse assessed as serum protein level at 5 mg/kg, po qd administered as single dose for 7 days (reference value: 2.91 +/- 0.31 mg/ml); format: organism-based; details: in vivo, 168 h
Mus musculus [31] = assay: Acute toxicity in Swiss albino mouse assessed as body weight at 1000 mg/kg, po qd administered as single dose for 7 days (reference value: 27.73 +/- 0.94 g); format: organism-based; details: in vivo, 168 h
FaDu [32] = assay: Induction of apoptosis in human FADU cells at 10 uM by propidium iodide staining based flow cytometry; format: functional, cell-based
Mus musculus [33] = assay: Acute toxicity in Swiss albino mouse assessed as serum SGOT level at 5 mg/kg, po qd administered as single dose for 7 days (reference value: 34.32 +/- 3.78 U/L); format: organism-based; details: in vivo, 168 h
Mus musculus [34] = assay: Acute toxicity in Swiss albino mouse assessed as changes in absolute weight of liver up to 1000 mg/kg, po qd administered as single dose for 7 days; format: organism-based; details: in vivo, 168 h
Mus musculus [35] = assay: Acute toxicity in Swiss albino mouse assessed as body weight at 300 mg/kg, po qd administered as single dose for 7 days (reference value: 27.73 +/- 0.94 g); format: organism-based; details: in vivo, 168 h
Mus musculus [36] = assay: Acute toxicity in Swiss albino mouse assessed as effect on neutrophil count up to 1000 mg/kg, po qd administered as single dose for 7 days; format: organism-based; details: in vivo, 168 h

SMILES: O=C1C=C(OCc2ccccc2)C(=O)c2ccccc21
- Activity (Mus musculus [1]): 65.13 mg/dL
- Activity (Mus musculus [2]): Non-Toxic
- Activity (Mus musculus [3]): 33.87 U/L
- Activity (Mus musculus [4]): 0.16 mg/dL
- Activity (Mus musculus [5]): Non-Toxic
- Activity (Mus musculus [6]): 9.59 million/mm3
- Activity (Mus musculus [7]): 8.7 ×10³ /mm3
- Activity (Mus musculus [8]): Non-Toxic
- Activity (Mus musculus [9]): Non-Toxic
- Activity (Mus musculus [10]): 8.67 million/mm3
- Activity (Mus musculus [11]): 127.4 mg/dL
- Activity (Mus musculus [12]): 19.16 U/L
- Activity (Mus musculus [13]): 8.38 ×10³ /mm3
- Activity (Mus musculus [14]): 119.3 mg/dL
- Activity (Mus musculus [15]): 26.76 g
- Activity (Mus musculus [16]): 2.92 g/dL
- Activity (Mus musculus [17]): 0.13 mg/dL
- Activity (Mus musculus [18]): Non-Toxic
- Activity (Mus musculus [19]): 20.48 U/L
- Activity (Mus musculus [20]): Non-Toxic
- inhibition (FaDu [21]): 36.6%
- Activity (Mus musculus [22]): 45.62 mg/dL
- Activity (Mus musculus [23]): 51.05 mg/dL
- IC50 [24]: 16.2 µM
- IC50 [25]: 6.83 µM
- IC50 [26]: 13.9 µM
- Activity (Mus musculus [27]): 13.42 g/dL
- Activity (Mus musculus [28]): Non-Toxic
- Activity (Mus musculus [29]): 2.95 mg/mL
- Activity (Mus musculus [30]): 2.55 mg/mL
- Activity (Mus musculus [31]): 26.48 g
- Activity (FaDu [32]): Active
- Activity (Mus musculus [33]): 38.3 U/L
- Activity (Mus musculus [34]): Non-Toxic
- Activity (Mus musculus [35]): 27.09 g
- Activity (Mus musculus [36]): Non-Toxic
